Measured values from BigSolDB 2.1.

CC(C)c1nc(N(C)S(C)(=O)=O)nc(-c2ccc(F)cc2)c1/C=C/[C@@H](O)C[C@@H](O)CC(=O)[O-].CC(C)c1nc(N(C)S(C)(=O)=O)nc(-c2ccc(F)cc2)c1/C=C/[C@@H](O)C[C@@H](O)CC(=O)[O-].[Ca+2]
solubility (mole fraction) (in ethanol, 298.15 K): 0.000337 | solubility (mole fraction) (in ethanol, 303.15 K): 0.000392 | solubility (mole fraction) (in ethanol, 308.15 K): 0.000469 | solubility (mole fraction) (in ethanol, 313.15 K): 0.00057 | solubility (mole fraction) (in ethanol, 318.15 K): 0.000681 | solubility (mole fraction) (in ethylene glycol, 298.15 K): 0.000255 | solubility (mole fraction) (in ethylene glycol, 303.15 K): 0.000311 | solubility (mole fraction) (in ethylene glycol, 308.15 K): 0.000374 | solubility (mole fraction) (in ethylene glycol, 313.15 K): 0.00044 | solubility (mole fraction) (in ethylene glycol, 318.15 K): 0.000503 | solubility (mole fraction) (in isopropanol, 298.15 K): 0.000304 | solubility (mole fraction) (in isopropanol, 303.15 K): 0.000366 | solubility (mole fraction) (in isopropanol, 308.15 K): 0.000432 | solubility (mole fraction) (in isopropanol, 313.15 K): 0.000499 | solubility (mole fraction) (in isopropanol, 318.15 K): 0.000566 | solubility (mole fraction) (in n-butanol, 298.15 K): 0.000429 | solubility (mole fraction) (in n-butanol, 303.15 K): 0.000511 | solubility (mole fraction) (in n-butanol, 308.15 K): 0.000614 | solubility (mole fraction) (in n-butanol, 313.15 K): 0.00071 | solubility (mole fraction) (in n-butanol, 318.15 K): 0.00082 | solubility (mole fraction) (in propylene glycol, 298.15 K): 0.0156 | solubility (mole fraction) (in propylene glycol, 303.15 K): 0.0164 | solubility (mole fraction) (in propylene glycol, 308.15 K): 0.0173 | solubility (mole fraction) (in propylene glycol, 313.15 K): 0.0181 | solubility (mole fraction) (in propylene glycol, 318.15 K): 0.0189 | solubility (mole fraction) (in sec-butanol, 298.15 K): 7.17e-05 | solubility (mole fraction) (in sec-butanol, 303.15 K): 8e-05 | solubility (mole fraction) (in sec-butanol, 308.15 K): 8.96e-05 | solubility (mole fraction) (in sec-butanol, 313.15 K): 9.92e-05 | solubility (mole fraction) (in sec-butanol, 318.15 K): 0.000108 | solubility (mole fraction) (in water, 298.15 K): 5.4e-06 | solubility (mole fraction) (in water, 303.15 K): 7.02e-06 | solubility (mole fraction) (in water, 308.15 K): 9e-06 | solubility (mole fraction) (in water, 313.15 K): 1.13e-05 | solubility (mole fraction) (in water, 318.15 K): 1.4e-05
